Here are results for 1 compound from US20230404958A1, “AGENT FOR […] DAMAGE INDUCED BY RHABDOMYOLYSIS” (Niigata University, priority 2021, published 2023).

In one experiment the target is megalin (binding to Hx) (Rattus norvegicus, UniProt P98158). Particulars: 1 mg of cilastatin injected into buffer (200 μL) in advance; FIG. 2-1. From the text: (§1) Binding specificity between megalin and each ligand (myoglobin, α1M, and Hx) and the possible binding inhibition by cilastatin were verified using the quartz crystal microbalance (QCM) method by reference to the method described in PTL 2.
(§2) For the ligands to be verified, myoglobin (LifeSpan Biosciences Inc., Rat […] Native Protein, LS-G11201) and Hx (Sino Biological Inc., Rat Hemopexin/HPX protein (His Tag 81025-R08H)) were used. […]
(§3) After each of the ligand- or BSA-immobilized quartz crystal sensor was mounted in the measurement instrument AFFINIX® Q8 (Initium Inc.) and the frequency was confirmed to be stable, 8 μL of a 0.1 mg/mL solution of megalin purified from Sprague-Dawley (SD) rat kidneys according to the method of Orlando et al. was injected and frequency was measured with time.
(§4) More specifically, the megalin solution was reacted with each of the ligand-immobilized quartz crystal sensors placed under the water surface with 200 μL of buffer, and the frequency was measured.
(§5) Additionally, 1 mg of cilastatin was injected into buffer in advance, each of the ligand-immobilized quartz crystal sensors was mounted in the measurement instrument, and after the frequency was confirmed to be stable, the megalin solution was injected and frequency was measured with time, whereby the antagonistic activity of cilastatin against the binding of each ligand to megalin was analyzed. […]

For experiment [1], the target named is megalin (binding to myoglobin) (Rattus norvegicus, UniProt P98158). The settings on record: 1 mg of cilastatin injected into buffer (200 μL) in advance; FIG. 2-1.
Description: as §1, §2, §3, §4, §5

The test system of experiment [2] is myoglobin uptake into kidney tissues. Particulars: rhabdomyolysis model mice; 24 hours after glycerol dosing; anti-myoglobin immunostaining; FIG. 5. The protocol: In line with Test Example 1, 50% glycerol was administered to C57BL/6 (male, aged 10-12 weeks), thereby constructing rhabdomyolysis model mice.
Twenty-four hours after glycerol dosing, a portion containing a kidney pedicle was sliced to 3 mm thickness from the right kidney and fixed with 4% paraformaldehyde phosphate buffer.

The next experiment has as its target megalin (binding to α1M) (Rattus norvegicus, UniProt P98158). The settings on record: 1 mg/200 μL of cilastatin injected into buffer in advance; FIG. 2-2.
Description: as §1

In experiment [3] the test system is uptake of each ligand into kidney tissues through megalin. The settings on record: cilastatin sodium 400 mg/kg intraperitoneally, urine collected 3 hours. The protocol:
Cilastatin was administered to mice and changes in concentrations of each ligand in urine were observed.
Five mice (male, aged 12 weeks C57BL/6) were intraperitoneally administered with 400 mg/kg (diluted in 100 μL of normal saline, cilastatin-treated group) of cilastatin sodium (Sigma-Aldrich Japan K.K., C5743), and then put in a metabolic cage for 3 hours to collect urine, and the urines of 5 mice were combined. Additionally, 100 μL of normal saline was administered to another group of 5 mice (control group), and the same experiment as above was conducted.
Proteins were isolated from the obtained urine samples by electrophoresis (SDS-polyacrylamide gel), reductively alkylated (using dithiothreitol and iodoacetamide), digested with trypsin, and the obtained peptides were extracted to obtain a solid.
To the obtained solid, 15 μL of 0.3% formic acid (FA) was added, shaken for 5 minutes, sonicated for 1 minute, and shaken again for 5 minutes. The resultant mixture was spun down, applied to a membrane filter having a pore diameter of 0.45 μm (ULtra free-MC, HV, 0.45 μm, Millipore), centrifuged at 10,000 rpm for 5 minutes, and the sample passed through the filter was subjected to LCMS analysis.
AnaLyst® TF1.6 (AB SCIEX) was used as an LCMS/MS data acquisition and analysis software, and the obtained raw data were converted to a peak list file (mgf file format), whereby MS/MS Ion Search (MIS search) was conducted using Matrix Science Mascot daemon, Mascot server 2.2.1. The sequence data base used was Uniprot, Swiss-Prot. Significance threshold was set to 0.05 (false discovery rate of less than 5%), and the proteins having 2 or more peptides exceeding the identification standard were listed as identified proteins.
Raw data were acquired 2 times per sample at LCMS to cover the issue of analysis reproducibility at LCMS, and the peak list files obtained from the 2 runs were combined and analyzed using Mascot (Ohara et al., 2018, PLoS One, vol. 13, 1, e0204160).
To the proteins identified in common in 2 groups when compared, the spectral count method was used, which is a label-free comparative, semiquantitative analysis method utilizing a principle that a large number of peptide fragments will be identified in those expressed at high levels, resulting in the increase in the number of MS/MS. In other words, the proteins identified in both of the cilastatin-treated group and control group were calculated for an SpC/L ratio (spectral abundance factor: SAF) of the cilastatin-treated group/control group, and the proteins having an SpC/L ratio of 2.0 or more were listed as the proteins abundant in urine of the cilastatin-treated group.

Experiment [4] deals with rhabdomyolysis model mice. The settings on record: 400 mg/kg intraperitoneally; 24 hours after glycerol administration; vs normal saline control group; FIG. 1.
Description: Serum potassium, which elevates when a renal function is reduced, was measured to verify whether the onset of renal injuries in rhabdomyolysis model mice is inhibited by cilastatin administration.
To C57BL/6 (male, aged 10-12 weeks), 5 mL/kg of a solution of 50% volume/volume glycerol (FUJIFILM Wako Pure Chemical Corporation)/PBS was prepared, and the solution was intramuscularly injected to the right hind limb, thereby constructing rhabdomyolysis nephropathy models. The administered animals were divided into 2 groups (6 mice per group), and intraperitoneally administered with a) 400 mg/kg (diluted in 100 μL of normal saline) of cilastatin (Sigma-Aldrich Inc.) or b) 100 μL of normal saline as a control.
The serum was stored at −80° C. until analysis and the measurement of serum potassium was conducted by Oriental Yeast Co., Ltd.
[5] abbreviates: cilastatin-treated group/control group, pooled from 5 mice.

Sequence of megalin (binding to α1M) (P98158 26-4660): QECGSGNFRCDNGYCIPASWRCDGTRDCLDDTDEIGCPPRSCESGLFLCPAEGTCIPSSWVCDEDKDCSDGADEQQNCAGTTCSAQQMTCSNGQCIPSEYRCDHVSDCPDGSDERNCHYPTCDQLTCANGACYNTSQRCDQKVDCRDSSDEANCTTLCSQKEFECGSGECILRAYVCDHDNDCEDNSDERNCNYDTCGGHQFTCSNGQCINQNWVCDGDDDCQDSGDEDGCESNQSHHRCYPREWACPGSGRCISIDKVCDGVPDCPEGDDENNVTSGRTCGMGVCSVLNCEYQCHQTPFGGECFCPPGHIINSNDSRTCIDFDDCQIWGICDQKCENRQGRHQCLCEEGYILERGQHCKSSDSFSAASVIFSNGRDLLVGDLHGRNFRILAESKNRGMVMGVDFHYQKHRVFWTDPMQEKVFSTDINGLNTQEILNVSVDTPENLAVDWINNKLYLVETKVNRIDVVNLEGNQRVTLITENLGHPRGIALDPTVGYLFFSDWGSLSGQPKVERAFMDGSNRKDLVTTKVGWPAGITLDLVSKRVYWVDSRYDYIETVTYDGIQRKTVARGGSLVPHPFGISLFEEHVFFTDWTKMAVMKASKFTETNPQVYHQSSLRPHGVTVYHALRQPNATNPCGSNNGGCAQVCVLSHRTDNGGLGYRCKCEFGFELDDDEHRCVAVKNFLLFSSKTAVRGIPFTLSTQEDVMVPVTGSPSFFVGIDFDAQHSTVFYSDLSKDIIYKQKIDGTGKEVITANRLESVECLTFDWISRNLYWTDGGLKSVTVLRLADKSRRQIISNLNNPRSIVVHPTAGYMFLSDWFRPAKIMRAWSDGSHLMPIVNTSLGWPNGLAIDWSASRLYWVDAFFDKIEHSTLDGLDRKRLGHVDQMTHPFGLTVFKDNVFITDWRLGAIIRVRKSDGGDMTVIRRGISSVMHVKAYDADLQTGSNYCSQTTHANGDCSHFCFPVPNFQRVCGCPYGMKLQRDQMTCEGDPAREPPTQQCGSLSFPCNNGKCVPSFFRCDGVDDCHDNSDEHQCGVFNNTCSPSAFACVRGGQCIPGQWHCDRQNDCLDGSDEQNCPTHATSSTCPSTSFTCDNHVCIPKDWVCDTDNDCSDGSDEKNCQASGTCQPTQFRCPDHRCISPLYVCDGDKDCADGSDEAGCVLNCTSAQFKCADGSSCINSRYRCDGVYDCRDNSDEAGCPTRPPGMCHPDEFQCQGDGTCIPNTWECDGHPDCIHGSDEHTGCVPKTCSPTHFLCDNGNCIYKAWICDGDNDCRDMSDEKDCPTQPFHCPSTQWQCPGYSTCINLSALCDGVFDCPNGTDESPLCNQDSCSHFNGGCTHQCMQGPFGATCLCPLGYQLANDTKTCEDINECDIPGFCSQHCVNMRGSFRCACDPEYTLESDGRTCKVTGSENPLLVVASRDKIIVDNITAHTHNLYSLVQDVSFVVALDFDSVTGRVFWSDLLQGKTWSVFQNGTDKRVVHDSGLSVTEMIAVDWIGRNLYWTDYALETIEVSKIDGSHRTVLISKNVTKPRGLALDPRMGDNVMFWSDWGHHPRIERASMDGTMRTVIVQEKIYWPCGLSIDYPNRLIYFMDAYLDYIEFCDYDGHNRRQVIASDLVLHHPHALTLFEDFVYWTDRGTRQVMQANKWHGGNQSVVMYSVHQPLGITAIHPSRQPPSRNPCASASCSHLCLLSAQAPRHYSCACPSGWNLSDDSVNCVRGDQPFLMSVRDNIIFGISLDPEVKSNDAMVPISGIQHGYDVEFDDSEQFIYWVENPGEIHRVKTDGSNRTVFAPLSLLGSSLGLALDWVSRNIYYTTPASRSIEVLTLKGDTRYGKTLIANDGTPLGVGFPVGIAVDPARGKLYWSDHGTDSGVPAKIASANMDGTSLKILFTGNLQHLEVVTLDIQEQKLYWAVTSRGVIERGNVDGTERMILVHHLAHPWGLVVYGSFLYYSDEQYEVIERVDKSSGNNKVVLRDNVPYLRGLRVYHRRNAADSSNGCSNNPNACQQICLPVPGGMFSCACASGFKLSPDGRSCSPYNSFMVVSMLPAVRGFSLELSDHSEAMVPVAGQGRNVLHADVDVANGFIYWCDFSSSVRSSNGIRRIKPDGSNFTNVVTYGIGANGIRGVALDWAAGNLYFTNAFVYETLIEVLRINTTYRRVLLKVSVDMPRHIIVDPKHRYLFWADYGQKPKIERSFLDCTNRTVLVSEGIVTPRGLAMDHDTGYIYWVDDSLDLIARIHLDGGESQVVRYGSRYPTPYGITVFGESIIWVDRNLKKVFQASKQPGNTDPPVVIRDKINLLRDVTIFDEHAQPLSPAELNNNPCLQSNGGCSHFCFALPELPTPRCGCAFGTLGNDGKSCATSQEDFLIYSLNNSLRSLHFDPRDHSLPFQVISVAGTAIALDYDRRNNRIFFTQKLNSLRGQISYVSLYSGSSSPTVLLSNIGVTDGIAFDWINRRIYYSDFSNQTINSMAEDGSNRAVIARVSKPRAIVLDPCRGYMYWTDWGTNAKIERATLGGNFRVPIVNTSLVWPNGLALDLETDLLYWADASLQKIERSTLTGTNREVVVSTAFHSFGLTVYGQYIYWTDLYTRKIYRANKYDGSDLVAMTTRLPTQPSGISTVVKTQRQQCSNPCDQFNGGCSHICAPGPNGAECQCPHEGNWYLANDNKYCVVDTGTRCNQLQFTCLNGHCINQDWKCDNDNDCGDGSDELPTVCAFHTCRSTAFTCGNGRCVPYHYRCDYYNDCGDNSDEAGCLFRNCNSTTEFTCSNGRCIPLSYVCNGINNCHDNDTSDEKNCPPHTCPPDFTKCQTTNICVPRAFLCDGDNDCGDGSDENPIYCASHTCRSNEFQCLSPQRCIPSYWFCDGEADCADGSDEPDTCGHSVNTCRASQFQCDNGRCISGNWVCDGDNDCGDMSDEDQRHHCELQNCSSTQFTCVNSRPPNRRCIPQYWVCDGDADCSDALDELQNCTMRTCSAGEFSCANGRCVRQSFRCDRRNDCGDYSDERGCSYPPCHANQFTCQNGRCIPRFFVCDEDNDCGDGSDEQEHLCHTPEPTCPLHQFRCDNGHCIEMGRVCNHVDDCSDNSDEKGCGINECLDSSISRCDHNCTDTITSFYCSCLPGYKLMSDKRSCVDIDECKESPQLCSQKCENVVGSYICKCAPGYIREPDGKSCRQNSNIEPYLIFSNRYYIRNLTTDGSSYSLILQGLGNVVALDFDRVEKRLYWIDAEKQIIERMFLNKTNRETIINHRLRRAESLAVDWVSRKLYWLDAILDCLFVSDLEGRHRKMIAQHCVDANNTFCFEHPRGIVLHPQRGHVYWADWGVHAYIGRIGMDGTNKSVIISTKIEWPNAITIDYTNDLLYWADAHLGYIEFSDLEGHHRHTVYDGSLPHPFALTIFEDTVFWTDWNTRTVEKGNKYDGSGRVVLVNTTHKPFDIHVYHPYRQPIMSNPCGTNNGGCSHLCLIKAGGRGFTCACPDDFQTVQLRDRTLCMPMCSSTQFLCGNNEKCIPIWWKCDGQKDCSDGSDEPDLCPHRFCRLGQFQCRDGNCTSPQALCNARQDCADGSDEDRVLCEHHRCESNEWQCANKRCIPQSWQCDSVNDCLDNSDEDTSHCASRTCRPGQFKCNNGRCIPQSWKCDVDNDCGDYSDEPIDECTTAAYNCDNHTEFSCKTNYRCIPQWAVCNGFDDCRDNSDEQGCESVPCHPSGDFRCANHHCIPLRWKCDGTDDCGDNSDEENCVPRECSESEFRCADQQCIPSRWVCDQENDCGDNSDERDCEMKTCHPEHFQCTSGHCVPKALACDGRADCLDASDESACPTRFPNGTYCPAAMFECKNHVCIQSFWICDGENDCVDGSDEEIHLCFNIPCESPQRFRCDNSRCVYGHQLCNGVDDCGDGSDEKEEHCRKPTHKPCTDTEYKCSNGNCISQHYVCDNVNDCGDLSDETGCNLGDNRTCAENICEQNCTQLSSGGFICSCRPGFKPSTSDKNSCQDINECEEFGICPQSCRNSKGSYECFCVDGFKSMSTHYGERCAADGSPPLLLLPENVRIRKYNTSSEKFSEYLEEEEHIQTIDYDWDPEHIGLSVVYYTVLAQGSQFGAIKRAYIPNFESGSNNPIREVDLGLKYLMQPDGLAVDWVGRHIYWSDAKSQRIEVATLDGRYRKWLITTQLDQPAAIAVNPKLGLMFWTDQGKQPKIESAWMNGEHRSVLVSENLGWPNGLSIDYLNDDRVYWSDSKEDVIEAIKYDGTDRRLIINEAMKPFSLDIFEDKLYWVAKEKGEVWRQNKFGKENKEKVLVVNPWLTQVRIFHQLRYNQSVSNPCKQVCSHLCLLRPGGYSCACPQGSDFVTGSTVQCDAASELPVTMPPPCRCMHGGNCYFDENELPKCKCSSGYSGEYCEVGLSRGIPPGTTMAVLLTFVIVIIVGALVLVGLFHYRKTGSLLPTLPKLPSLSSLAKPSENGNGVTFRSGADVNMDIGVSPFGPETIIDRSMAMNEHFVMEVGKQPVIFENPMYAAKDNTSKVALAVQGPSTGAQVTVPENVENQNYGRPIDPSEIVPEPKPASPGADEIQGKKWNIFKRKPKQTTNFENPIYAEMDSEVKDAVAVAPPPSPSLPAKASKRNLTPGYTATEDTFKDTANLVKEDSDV
Sequence of megalin (binding to Hx) (P98158 26-4660): as above
Sequence of megalin (binding to myoglobin) (P98158 26-4660): as above

`CC1(C)C[C@@H]1C(=O)N/C(=C\CCCCSC[C@H](N)C(=O)O)C(=O)O` [cilastatin, (Z)-7-[[(R)-2-Amino-2-carboxyethyl]thio]-2-[[[(S)-2,2-dimethylcyclopropyl]carbonyl]amino]-2-heptenoic acid]: the “drop of quartz crystal signals on adding megalin to Hx-immobilized sensor (megalin-Hx binding)” value on megalin (binding to Hx) is “inhibited”. For the same compound, in experiment [1], the “drop of quartz crystal signals on adding megalin to myoglobin-immobilized sensor (megalin-myoglobin binding)” value was “inhibited”. Besides, in experiment [2], the “amounts of myoglobin taken up into kidney tissues” value is listed as “reduced”. Further, the “drop of quartz crystal signals on adding α1M to megalin-immobilized sensor (megalin-α1M binding)” value at megalin (binding to α1M) is “inhibited”. Also, the “number of urinary proteins having an SpC/L ratio of the cilastatin-treated group/control group of 2.0 or more” value in experiment [3] is reported as 63 kinds. In experiment [3] (setting [5]), the “SpC/L ratio, urinary Albumin” value came to 1.10; the “SpC/L ratio, urinary Clusterin” value was 0.73; the “SpC/L ratio, urinary Transthyretin” value is 1.00; the “SpC/L ratio, urinary Vitamin D-binding protein” value is given as 0.80. The serum potassium result in experiment [4] is recorded as “lower values than the control group”.
